The source of these data is ChEMBL document CHEMBL3507680, “University of Dundee, Gates Library screen for HepG2 cell viability”.

Molecules are shown by their SMILES.

The nature of this data set: Human HepG2 cell viability assay in 384 well format. The data set is classed as toxicity, cell-based. Also on record: dose 125 nL, time 70.5 hour; cytotoxicity at 70.5 h: concentration not given beside the values. The settings on record: HepG2 cells, read-out: Inhibition.
As to `O=C1COC2(CCN(Cc3ccoc3)CC2)CN1c1ccccc1`, the cytotoxicity at 70.5 h worked out at 5.1%.

`O=C(CCOc1cccc(Cl)c1)N1CCN(c2cnccn2)CC1`: the cytotoxicity at 70.5 h is 22%.

Consider `CCNc1cc2c(nn1)CCN(C(=O)c1cccc3c1OCCO3)C2`, for which the cytotoxicity at 70.5 h was -9.67%.

In the case of `COc1ccccc1Oc1ncccc1CNC(=O)C1(C)CCCNC1` (stereo not drawn), the cytotoxicity at 70.5 h was -1.4%.

For `CC(C)(C)c1nnc2n1C(C(=O)N1CCCC1)CC2` (stereo not drawn), the cytotoxicity at 70.5 h is -12.7%.

`N#Cc1ccnc(N2CCN(C(=O)NC3CCS(=O)(=O)C3)CC2)c1` (stereo not drawn): the cytotoxicity at 70.5 h was -7.36%.

As for `CCn1nnc2c1C(COC)CN(Cc1ccsc1)C2` (stereo not drawn), the cytotoxicity at 70.5 h is -0.304%.

On to `Cc1cncc(C2CCCN(CC3CCC3)C2)n1` (stereo not drawn), for which the cytotoxicity at 70.5 h was -4.65%.

Regarding `Cc1ccc(C(=O)N2CCOCC3(CCN(C4CCOCC4)C3)C2)o1` (stereo not drawn), the cytotoxicity at 70.5 h was -13.2%.

For the molecule `Cc1nc(C2CCCN2Cc2nnc(C3CC3)o2)no1` (stereo not drawn), the cytotoxicity at 70.5 h was determined as 0.406%.

On to `NC(=O)c1ccnc(N2CCCC(CO)(Cc3ccccc3)C2)c1` (stereo not drawn), for which the cytotoxicity at 70.5 h is -5.88%.

Regarding `COc1ccc(CCNC(C)c2ccc3[nH]c(=O)[nH]c3c2)cc1OC` (stereo not drawn), the cytotoxicity at 70.5 h was found to be 3.32%.

Turning to `CCCS(=O)(=O)N1C[C@@H]2CC[C@H](C1)N(Cc1cscn1)C2=O`, the cytotoxicity at 70.5 h is -9.73%.

`CC1(C)Cc2c(cnn2-c2ccccc2)C(NC2CCSCC2)C1` (stereo not drawn): the cytotoxicity at 70.5 h was -5.66%.

Take `COCCNC(=O)c1cc(-c2cc[nH]n2)n2ccccc12`: the cytotoxicity at 70.5 h is -117%.

Regarding `C[C@@H]1CN(C(=O)CCCN2CCCC2)CC[C@@]1(O)C1CCOCC1`, the cytotoxicity at 70.5 h is -3.8%.

`Cc1ccc(NC(=O)CCc2cnn(C)c2)cc1F`: the cytotoxicity at 70.5 h was -8.37%.

For `CN(C)C(=O)c1nc(-c2ccc(S(C)(=O)=O)cc2)c2cnccn12`, the cytotoxicity at 70.5 h was -6.88%.

Regarding `CCN1CCN(c2ccc(NC(C)c3nc(C(C)C)no3)c(C)c2)CC1` (stereo not drawn), the cytotoxicity at 70.5 h is -12.5%.

Take `Cc1c[nH]c(CN(C)C(=O)CCn2cnc3ccccc32)n1`: the cytotoxicity at 70.5 h is -1.23%.

With `Cc1cc(NC(=O)Cn2ccccc2=O)n(C)n1`, the cytotoxicity at 70.5 h was -11.7%.

In the case of `CN(C)CCN1C(=O)CCC12CCCN(C(=O)c1cccnc1)CC2` (stereo not drawn), the cytotoxicity at 70.5 h is -5.29%.

For `CCn1ncc(CN2CCC(c3ncc(Cl)cc3S(C)(=O)=O)CC2)c1C`, the cytotoxicity at 70.5 h is -8.43%.

As for `Cc1cnc(CN2CCCC2c2cnn(C)c2)cn1` (stereo not drawn), the cytotoxicity at 70.5 h was -10.3%.

In the case of `Cc1nc(N2C[C@H]3CC[C@@H](C2)N3)nc2cc(S(C)(=O)=O)ccc12`, the cytotoxicity at 70.5 h is -2.58%.

For `COc1cccc(-c2n[nH]cc2C(=O)NC(C)CC(=O)O)c1` (stereo not drawn), the cytotoxicity at 70.5 h is -2.91%.

For the molecule `Cc1ccc(CN(C)CC(=O)NC2(C)CCS(=O)(=O)C2)cc1` (stereo not drawn), the cytotoxicity at 70.5 h is -3.98%.

As for `CCc1nnc2n1CCN(c1nc(C)cc(N(C)C)n1)C2`, the cytotoxicity at 70.5 h was -13.4%.

Take `COCCN(CCOC)C(=O)c1cnn(C)c1-n1c(C)ccc1C`: the cytotoxicity at 70.5 h turned out to be 1.05%.

In the case of `c1ccc(-c2ncc(CN3CCCCC3CCn3cccn3)cn2)nc1` (stereo not drawn), the cytotoxicity at 70.5 h was -4.71%.

With `Cc1occc1-c1nc(-c2cccc(CN3CCOCC3)c2)no1`, the cytotoxicity at 70.5 h came to 0.585%.

As for `CC(C)(C)OC(=O)N1CC(CC(=O)NCc2ccnc(C3CC3)c2)C1`, the cytotoxicity at 70.5 h is -8.99%.

On to `O=C1OCCN1CCNCC1(O)CCCN(CCC2CCCCC2)C1=O` (stereo not drawn), for which the cytotoxicity at 70.5 h was -5.99%.

Regarding `c1cnc2ccc(C[C@@H]3CC[C@H](CN4CCCOCC4)O3)cc2c1`, the cytotoxicity at 70.5 h was -10.1%.

For `Cc1cnc(NC(=O)c2cccc(CN(C)Cc3ccno3)c2)s1`, the cytotoxicity at 70.5 h is -4.32%.

On to `Cc1cc(N2CCCCC2)nc(N(CCO)CCO)c1C#N`, for which the cytotoxicity at 70.5 h is -8.15%.

As for `CN1Cc2ccccc2CC2(CCN(CCO)CC2)C1=O`, the cytotoxicity at 70.5 h turned out to be 18%.

Consider `Cc1nc(C)c(C(=O)N2Cc3ccccc3OCC2CN(C)C)o1` (stereo not drawn), for which the cytotoxicity at 70.5 h was found to be 1.45%.

Turning to `NC(=O)c1ccc(OCCC(=O)NC2CCc3c(F)cccc32)cc1` (stereo not drawn), the cytotoxicity at 70.5 h was 21.4%.

For the molecule `CN1CCN(Cc2nnc(C3CCN(C(CO)CO)CC3)n2C)CC1`, the cytotoxicity at 70.5 h is -23.4%.

Turning to `O=C(O)c1cc(-c2ccncc2F)cc(S(=O)(=O)N2CCCCCC2)c1`, the cytotoxicity at 70.5 h is -23.6%.

With `O=C(CN1CCCC1c1nc(Cc2ccc(F)cc2)no1)NC1CC1` (stereo not drawn), the cytotoxicity at 70.5 h came out at 0.125%.

As for `COc1cc(N2CCC3(CCCN3Cc3ccn(C)n3)CC2)ncn1`, the cytotoxicity at 70.5 h is -3.28%.

Turning to `Fc1cnc(N2CCCC3(CCN(Cc4nccs4)C3)C2)nc1` (stereo not drawn), the cytotoxicity at 70.5 h was found to be 15%.

In the case of `CC(C)CN1CCC2(C=C(C(=O)N3CCCC3)c3ccccc32)CC1`, the cytotoxicity at 70.5 h is -15.8%.

Consider `Cc1cc(C(=O)Cn2cnnc2[S+](C)[O-])cc(C)c1F` (stereo not drawn), for which the cytotoxicity at 70.5 h was determined as 33.6%.

Regarding `Cc1ccccc1Cc1nc(CSc2nnc(N)n2C)no1`, the cytotoxicity at 70.5 h was -17.8%.

Turning to `Cc1n[nH]c(C)c1CC(=O)N1CCC2(CC1)CN(C)CCN2C`, the cytotoxicity at 70.5 h was found to be 23.4%.

Consider `CN(C)CC(c1ccccc1)N(C)C(=O)c1cccc(NCC(=O)O)c1` (stereo not drawn), for which the cytotoxicity at 70.5 h is -0.106%.

Take `O=C(NCc1cccs1)[C@@H]1CC[C@@H]2[C@@H](CCN2CC2CCC2)O1`: the cytotoxicity at 70.5 h is -17.4%.

With `COC1CCN(C(=O)C2CCCC2)CC(=O)N(C)c2ccccc21` (stereo not drawn), the cytotoxicity at 70.5 h was 22.2%.

In the case of `CNC(=O)c1nc(COc2c(C)occc2=O)no1`, the cytotoxicity at 70.5 h was -14.3%.

As for `Cc1ccc(CN(CCCn2ccnc2)Cc2c[nH]nc2C(C)(C)C)s1`, the cytotoxicity at 70.5 h is -0.375%.

`COc1cc(CN2CCC(O)(c3ccc(C)cn3)CC2)cc(Cl)c1OC`: the cytotoxicity at 70.5 h amounted to 17.5%.

For `CCc1[nH]ncc1C(=O)N1CCCC(n2cc(C)cn2)C1` (stereo not drawn), the cytotoxicity at 70.5 h was -5.59%.

For `CCn1cc2c(n1)CN(S(=O)(=O)Cc1ccccc1)CC2COC` (stereo not drawn), the cytotoxicity at 70.5 h came out at 11.6%.

As for `COc1c(C)cnc(CN2CCCC2Cn2nc(C)nc2C)c1C` (stereo not drawn), the cytotoxicity at 70.5 h is -3.93%.

In the case of `COc1ccc(CCC(=O)N2CCNCC2C(=O)N2CCOCC2)cc1` (stereo not drawn), the cytotoxicity at 70.5 h is -7.95%.

In the case of `COc1ccccc1NC(=O)NCC(O)(c1ccccc1)C1CC1` (stereo not drawn), the cytotoxicity at 70.5 h came to 20.2%.

In the case of `CC(=O)N1CCCN(C(=O)NCc2ccc(-c3ccn[nH]3)cc2)CC1`, the cytotoxicity at 70.5 h is -4.56%.

Turning to `Cc1ccn(CCNc2ncnc3c2CCN(c2cnccn2)CC3)n1`, the cytotoxicity at 70.5 h turned out to be 2.31%.

In the case of `O=C1CN(c2cc(-c3ccccc3F)nc3ccnn23)CCCN1`, the cytotoxicity at 70.5 h is -14.6%.

For the molecule `CCc1nnc(N2C[C@@H](CN(C)CCO)[C@@H](CO)C2)s1`, the cytotoxicity at 70.5 h was -12.4%.

Take `CN(Cc1ccc(Cl)s1)C(=O)c1cccc(OCC(N)=O)c1`: the cytotoxicity at 70.5 h is -15.3%.

In the case of `Cc1ccccc1OCCC(=O)NC(C)c1nnc2n1CCCCC2` (stereo not drawn), the cytotoxicity at 70.5 h is -2.91%.

On to `O=C(c1ccc(-n2cnnc2)cc1)N1CCC(Nc2cccnn2)CC1`, for which the cytotoxicity at 70.5 h was -15.6%.

Regarding `Cc1cc(F)cc(NC(=O)N(C)CC(C)(CO)CO)c1`, the cytotoxicity at 70.5 h was -1.87%.

Turning to `CC(O)CCN(C)c1nc2ccccc2c(=O)[nH]1` (stereo not drawn), the cytotoxicity at 70.5 h is -6.49%.

For `Cc1c(F)cc(C(=O)O)cc1S(=O)(=O)Nc1cccc(C(F)F)c1`, the cytotoxicity at 70.5 h was -10.3%.

With `Cc1ccc(=O)n(Cc2nc(C(C)OCC(C)C)no2)n1` (stereo not drawn), the cytotoxicity at 70.5 h is 3.26%.

On to `O=C(c1ccnnc1)N1CCn2cc(CN3CCCCC3)nc2C1`, for which the cytotoxicity at 70.5 h was -4.84%.

With `COc1ccc(CN2CCn3cccc3C2C)cc1F` (stereo not drawn), the cytotoxicity at 70.5 h was -3.79%.

With `CCOCc1cnc2n1CCN(C(=O)c1ccoc1C)C2C` (stereo not drawn), the cytotoxicity at 70.5 h was determined as 9.87%.

On to `Cc1nc(CN2CCCC(CCc3ccc(F)cc3F)C2)c[nH]1` (stereo not drawn), for which the cytotoxicity at 70.5 h was -1.86%.

On to `CCCc1cc(=O)n(CC(N)=O)c(-n2nc(C)cc2C)n1`, for which the cytotoxicity at 70.5 h is -4.18%.

`Cc1ncc(CNC(=O)CCc2ccccc2F)c(C2CCCN2C)n1` (stereo not drawn): the cytotoxicity at 70.5 h is -0.236%.

On to `Cc1ccc(C(=O)N2CCN(Cc3ccc(C#N)cc3)CC2)n1C`, for which the cytotoxicity at 70.5 h was -2.38%.

As for `c1ccc([C@@H]2CN(Cc3ccncc3)C[C@H]2c2cc[nH]n2)cc1`, the cytotoxicity at 70.5 h is -1.08%.

As for `COc1ccccc1CCN1CCCC(CN(C)Cc2ccc(C)o2)C1` (stereo not drawn), the cytotoxicity at 70.5 h was -8.57%.

`CN1CCOC2(CCCN(C(=O)C3CCCCC3)C2)C1` (stereo not drawn): the cytotoxicity at 70.5 h was 34.5%.

In the case of `COc1ccc(Cl)cc1C(=O)N1CCCC(c2cc(C)[nH]n2)C1` (stereo not drawn), the cytotoxicity at 70.5 h came to 0.303%.

Take `CCN1CCN(C(=O)c2cnn(-c3ccccc3Cl)c2)CC1`: the cytotoxicity at 70.5 h was -8.2%.

As for `CC(C)CS(=O)(=O)N1C[C@H]2C[C@H](C(=O)N3CCCC3)[C@@H](C1)O2`, the cytotoxicity at 70.5 h is 0.165%.

On to `COc1ccc(-c2n[nH]cc2CN(C)CCCN2CCOCC2)c(F)c1`, for which the cytotoxicity at 70.5 h is -3.86%.

Consider `Cc1ccc(NC2CCN(C(=O)c3cccc4[nH]ncc34)CC2)nn1`, for which the cytotoxicity at 70.5 h was -4.9%.

Consider `Cc1ccc(CNCc2nccn2C)c(OCC2CC2)c1`, for which the cytotoxicity at 70.5 h is 7.03%.

Take `OCCn1nccc1C1CCN(CCOc2ccccc2Cl)CC1`: the cytotoxicity at 70.5 h is -0.941%.

Turning to `CC(C)c1nn(C)c(N2CCOCC2)c1CNC(C)c1ccccn1` (stereo not drawn), the cytotoxicity at 70.5 h is -2.55%.

As for `COc1ccc(C(=O)N2C[C@@H](C(=O)O)[C@H](c3ccccc3)C2)c(C)c1`, the cytotoxicity at 70.5 h was 11.5%.

`CN1C(=O)CCN(C(=O)C2CC=CC2)c2ccccc21`: the cytotoxicity at 70.5 h turned out to be 1.54%.

On to `Cn1ccnc1C(=O)N1CCC2(CCN2c2ncccn2)C1` (stereo not drawn), for which the cytotoxicity at 70.5 h was determined as 0.472%.

With `Cc1ccc(CN2CCO[C@H]3[C@H](OCc4cccnc4)CC[C@@H]32)o1`, the cytotoxicity at 70.5 h was 36.8%.

As to `CN1CCC(CNC(=O)Cc2ccc(N(C)C)cc2)CC1`, the cytotoxicity at 70.5 h was -6.81%.

Regarding `CN(C)c1ccc(NC(=O)CN2CCS(=O)(=O)CC2)cn1`, the cytotoxicity at 70.5 h was -0.4%.

`OCCCN1CCc2onc(C(c3ccccc3)c3ccccc3)c2C1`: the cytotoxicity at 70.5 h is 6.85%.

Take `COc1cc(F)cc2sc(NC(=O)COCC3CCCO3)nc12` (stereo not drawn): the cytotoxicity at 70.5 h is 13.2%.

Take `c1ccc(Oc2cc(CNCC3CNc4ccnn4C3)ccn2)cc1` (stereo not drawn): the cytotoxicity at 70.5 h is -2.96%.

Consider `CCn1c(C2CCNCC2)nn(Cc2ccc(C(=O)NC)o2)c1=O`, for which the cytotoxicity at 70.5 h was -12.2%.
